Results from paper PMC2825747 (Journal of medicinal chemistry, 2010).
pIC50: −log10 of the molar value.

Key:
NCI 60 tumor cell lines = test: NCI preclinical 60 tumor cell line panel growth inhibition; type: cell-based; conditions: Homo sapiens, read-out: GI50 against the growth of the NCI 60 tumor cell lines
[1] = system: MDA MB 435 metastatic dermal breast cancer cells; test: Cell cycle analysis in MDA-MB-435 cells; type: cell-based, human; conditions: 20 μM, 24 h exposure
MDA-MB-435 breast cells = test: Cell signaling analysis; type: cell-based, human; conditions: MDA-MB-435 cells, 20 μM, 1 or 4 h
[2] = Dose-finding embryo lethality in CAM model; type: in vivo; conditions: chicken embryos, 3 days after injection
[3] = system: COLO-205 metastatic colon cancer cells; test: COLO-205 human metastatic colon mouse xenograft; type: in vivo, athymic mice; conditions: 1 at both 25 and 35 mg/kg; DMBI 15 mg/kg three times weekly
[4] = Whole animal toxicity assay; conditions: doses up from 75 mg/kg; no MTD was determined
[5] = system: MDA-MB-435, A431, Capan-1, HUVEC, HMEC-1, Huperi-3, human aortic SMCs; test: Cell viability; conditions: 24 h drug then 24 h serum-containing media; Fig. 10
PDGFR-β = PDGFR-β (Homo sapiens, UniProt P09619); test: PDGFR-β kinase inhibition, phosphotyrosine cytoblot in SF539 cells; type: cell-based; conditions: versus DMBI
Chain of PDGFR-β (P09619 33-1106): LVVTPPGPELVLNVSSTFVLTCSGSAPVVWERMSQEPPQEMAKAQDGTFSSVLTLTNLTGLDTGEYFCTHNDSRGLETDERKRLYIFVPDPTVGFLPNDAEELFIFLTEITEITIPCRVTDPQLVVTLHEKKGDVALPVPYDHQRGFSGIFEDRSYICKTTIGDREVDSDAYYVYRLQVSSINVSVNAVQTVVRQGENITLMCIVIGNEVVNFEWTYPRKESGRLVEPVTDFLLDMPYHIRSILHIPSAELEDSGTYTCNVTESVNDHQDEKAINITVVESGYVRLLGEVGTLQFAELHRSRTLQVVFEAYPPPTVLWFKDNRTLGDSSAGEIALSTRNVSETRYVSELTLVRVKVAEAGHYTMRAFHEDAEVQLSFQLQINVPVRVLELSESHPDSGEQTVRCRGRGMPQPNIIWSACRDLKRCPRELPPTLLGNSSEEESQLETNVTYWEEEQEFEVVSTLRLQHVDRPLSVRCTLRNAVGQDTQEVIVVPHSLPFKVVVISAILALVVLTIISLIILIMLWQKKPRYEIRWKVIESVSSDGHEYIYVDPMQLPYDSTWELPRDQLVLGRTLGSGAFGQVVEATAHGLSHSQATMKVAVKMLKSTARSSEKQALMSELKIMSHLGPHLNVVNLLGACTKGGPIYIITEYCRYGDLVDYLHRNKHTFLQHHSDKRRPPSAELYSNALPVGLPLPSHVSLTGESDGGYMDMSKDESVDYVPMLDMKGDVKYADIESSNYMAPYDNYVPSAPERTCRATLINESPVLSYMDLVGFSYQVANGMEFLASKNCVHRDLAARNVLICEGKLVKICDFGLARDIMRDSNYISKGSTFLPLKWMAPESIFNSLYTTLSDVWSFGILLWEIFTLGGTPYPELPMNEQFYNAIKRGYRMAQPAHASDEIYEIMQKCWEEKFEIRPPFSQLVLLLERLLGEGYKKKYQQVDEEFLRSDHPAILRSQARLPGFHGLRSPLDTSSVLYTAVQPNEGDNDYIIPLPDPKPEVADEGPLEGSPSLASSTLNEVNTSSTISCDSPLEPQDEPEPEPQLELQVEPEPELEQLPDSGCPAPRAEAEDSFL

Flt-3 = biological target: T1, Flt-3 (Homo sapiens, UniProt P36888); test: Flt-3 kinase whole cell assay, cytoblot in MV 3:11 cells; type: cell-based; conditions: versus 16
T1 sequence (P36888 27-993): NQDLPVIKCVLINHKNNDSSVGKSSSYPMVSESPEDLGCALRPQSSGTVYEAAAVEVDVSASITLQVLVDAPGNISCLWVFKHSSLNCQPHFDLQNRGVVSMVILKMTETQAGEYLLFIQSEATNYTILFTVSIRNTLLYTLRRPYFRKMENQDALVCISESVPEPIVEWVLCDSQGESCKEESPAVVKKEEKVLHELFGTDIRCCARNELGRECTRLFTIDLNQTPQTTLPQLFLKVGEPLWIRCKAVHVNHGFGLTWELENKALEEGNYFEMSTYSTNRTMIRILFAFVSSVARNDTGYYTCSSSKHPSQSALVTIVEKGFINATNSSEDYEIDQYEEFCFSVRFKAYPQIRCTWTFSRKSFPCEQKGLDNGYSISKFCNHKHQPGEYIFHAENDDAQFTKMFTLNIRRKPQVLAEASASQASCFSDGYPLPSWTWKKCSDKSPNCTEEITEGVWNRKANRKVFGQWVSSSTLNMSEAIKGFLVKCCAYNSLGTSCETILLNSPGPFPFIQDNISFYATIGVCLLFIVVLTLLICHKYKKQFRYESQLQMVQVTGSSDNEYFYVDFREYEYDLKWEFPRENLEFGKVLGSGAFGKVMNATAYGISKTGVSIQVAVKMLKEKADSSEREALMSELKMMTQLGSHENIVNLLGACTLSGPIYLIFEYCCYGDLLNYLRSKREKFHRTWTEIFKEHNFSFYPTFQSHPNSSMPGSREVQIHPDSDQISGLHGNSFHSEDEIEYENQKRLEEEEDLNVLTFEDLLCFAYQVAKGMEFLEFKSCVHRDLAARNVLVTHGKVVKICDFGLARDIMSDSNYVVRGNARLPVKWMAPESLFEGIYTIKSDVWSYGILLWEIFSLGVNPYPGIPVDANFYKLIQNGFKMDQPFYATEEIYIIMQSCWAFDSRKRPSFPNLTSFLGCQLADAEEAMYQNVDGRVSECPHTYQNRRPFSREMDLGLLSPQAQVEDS

[6] = biological target: human thymidylate synthase (hTS) (Homo sapiens, UniProt P04818); test: Thymidylate synthase; type: biochemical; conditions: versus pemetrexed
Chain of human thymidylate synthase (hTS) (P04818 whole entry): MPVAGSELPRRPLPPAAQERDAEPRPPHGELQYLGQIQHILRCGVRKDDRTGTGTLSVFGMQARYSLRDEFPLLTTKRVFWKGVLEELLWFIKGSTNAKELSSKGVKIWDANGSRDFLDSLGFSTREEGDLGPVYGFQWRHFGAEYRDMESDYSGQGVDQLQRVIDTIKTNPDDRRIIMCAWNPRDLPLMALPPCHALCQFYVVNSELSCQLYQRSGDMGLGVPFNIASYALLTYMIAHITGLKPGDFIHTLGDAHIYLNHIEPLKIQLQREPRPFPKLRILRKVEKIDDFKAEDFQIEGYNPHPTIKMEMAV

[7] = biological target: E. coli thymidylate synthase (Escherichia coli, UniProt P0A884); test: Thymidylate synthase; type: biochemical
Chain of E. coli thymidylate synthase (P0A884 whole entry): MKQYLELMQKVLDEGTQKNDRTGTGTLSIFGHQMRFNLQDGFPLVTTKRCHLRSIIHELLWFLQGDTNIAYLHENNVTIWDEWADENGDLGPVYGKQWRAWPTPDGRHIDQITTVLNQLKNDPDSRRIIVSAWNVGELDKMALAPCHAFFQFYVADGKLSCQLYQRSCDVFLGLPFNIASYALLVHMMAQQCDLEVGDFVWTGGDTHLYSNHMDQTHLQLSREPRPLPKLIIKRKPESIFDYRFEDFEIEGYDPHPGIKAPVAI

[8] = biological target: T2, Toxoplasma gondii thymidylate synthase (Toxoplasma gondii, UniProt Q07422); test: biochemical
T2 sequence (Q07422 1-610): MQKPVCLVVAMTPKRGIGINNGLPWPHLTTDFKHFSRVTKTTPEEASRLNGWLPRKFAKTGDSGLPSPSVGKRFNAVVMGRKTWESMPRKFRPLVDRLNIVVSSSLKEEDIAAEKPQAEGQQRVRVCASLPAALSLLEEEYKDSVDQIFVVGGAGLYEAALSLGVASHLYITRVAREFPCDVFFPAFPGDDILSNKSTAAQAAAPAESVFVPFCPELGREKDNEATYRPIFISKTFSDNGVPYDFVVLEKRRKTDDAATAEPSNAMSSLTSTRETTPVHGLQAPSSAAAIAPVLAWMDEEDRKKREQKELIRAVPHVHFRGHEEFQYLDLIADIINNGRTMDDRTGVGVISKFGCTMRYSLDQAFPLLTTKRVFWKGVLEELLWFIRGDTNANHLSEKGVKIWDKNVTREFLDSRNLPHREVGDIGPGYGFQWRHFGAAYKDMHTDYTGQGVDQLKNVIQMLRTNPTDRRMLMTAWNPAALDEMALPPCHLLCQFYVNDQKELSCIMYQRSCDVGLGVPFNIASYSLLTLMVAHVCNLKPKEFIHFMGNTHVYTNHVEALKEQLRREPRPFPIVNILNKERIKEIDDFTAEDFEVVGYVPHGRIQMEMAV

[9] = biological target: T3, Toxoplasma gondii dihydrofolate reductase (Toxoplasma gondii, UniProt Q07422); test: biochemical
T3 sequence (Q07422 1-610): T2 sequence (Q07422 1-610)

PDGFR-β: fold less potent than the standard DMBI (PDGFR-β) | Flt-3: fold less active compared with standard 16 (Flt-3) | hTS: fold more active than PMX as its monoglutamate [6] [fold] | pIC50 [7] | Structure (SMILES) | GI50 (NCI 60 tumor cell lines) [µM] | cell cycle effect [1] | levels of activated phospho-Akt (MDA-MB-435 breast cells) | levels of activated phospho-p42/44 MAPkinase (ERK 1/2) (MDA-MB-435 breast cells) | levels of cleaved caspase 3 (MDA-MB-435 breast cells) | highest dose resulting in no lethality or overt toxicity in embryos [2] [mg/kg] | numbers of COLO-205 metastases to the liver [3] | tolerability in mice [4] | cell viability (cell kill) sensitivity by cell type [5] | pIC50 [8] | pIC50 [9]
 |  |  |  | Nc1nc(N)c2c(n1)[nH]c1cccc(Sc3ccccc3)c12 [Compound 1, 5-(phenylthio)-9H-pyrimido[4,5-b]indole-2,4-diamine] | 1 to 10 | buildup in G2/M | neither agent resulted in increased levels of activated phospho-Akt | reduced levels of activated ERK 1/2 | neither 20 μM 1 or 20 μM 2 resulted in increased levels of cleaved caspase 3 | 25 | significantly reduced numbers of COLO-205 metastases to the liver | well tolerated without any visual ADRs or loss in weight | Human retinal pericytes (Huperi-3),[64] (not human aortic SMCs), were very sensitive |  | 
about 11 fold | about 13 fold | 76 | < 4.59 | Cc1ccc(Sc2cccc3[nH]c4nc(N)nc(N)c4c23)cc1 [Compound 2, 5-[(4-methylphenyl)thio]-9H-pyrimido[4,5-b]indole-2,4-diamine] |  | increase in S phase | neither agent resulted in increased levels of activated phospho-Akt | reduced levels of activated ERK 1/2 | neither 20 μM 1 or 20 μM 2 resulted in increased levels of cleaved caspase 3 |  |  |  | tumor cells being the most sensitive, endothelial cells falling someplace in the middle, and SMC variants being the least sensitive | < 4.59 | < 4.51
 |  |  |  | Nc1ccn([C@@H]2O[C@H](CO)[C@@H](O)C2(F)F)c(=O)n1 [gemcitabine, reference compound] |  |  |  |  |  | 10 |  |  |  |  | 
